The source of these data is BindingDB's records for doi:10.1016/j.bmcl.2019.126637 (Eli Lilly, 2019).

The target in this assay is Cyclin-Y/Cyclin-dependent kinase 16 (Homo sapiens, UniProt Q00536+Q8ND76). The assay is described as follows: Competitive irreversible inhibition of CDK16/cyclin Y (unknown origin) in presence of Km ATP.
Chain of Cyclin-Y/Cyclin-dependent kinase 16 (Q00536 whole entry): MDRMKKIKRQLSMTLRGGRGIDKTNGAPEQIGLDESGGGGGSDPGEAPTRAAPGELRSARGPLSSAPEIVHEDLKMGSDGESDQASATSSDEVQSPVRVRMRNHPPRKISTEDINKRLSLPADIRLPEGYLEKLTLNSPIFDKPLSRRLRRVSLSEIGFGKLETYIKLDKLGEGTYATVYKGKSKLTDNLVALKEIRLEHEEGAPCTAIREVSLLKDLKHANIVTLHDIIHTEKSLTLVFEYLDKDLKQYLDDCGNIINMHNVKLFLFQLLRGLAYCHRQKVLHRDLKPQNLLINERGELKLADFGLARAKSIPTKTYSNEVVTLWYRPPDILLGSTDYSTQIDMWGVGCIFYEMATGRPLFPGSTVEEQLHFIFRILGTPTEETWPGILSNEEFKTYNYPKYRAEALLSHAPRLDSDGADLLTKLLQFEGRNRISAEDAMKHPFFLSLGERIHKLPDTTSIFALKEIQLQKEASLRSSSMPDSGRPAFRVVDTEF
Chain of Cyclin-Y/Cyclin-dependent kinase 16 (Q8ND76 whole entry): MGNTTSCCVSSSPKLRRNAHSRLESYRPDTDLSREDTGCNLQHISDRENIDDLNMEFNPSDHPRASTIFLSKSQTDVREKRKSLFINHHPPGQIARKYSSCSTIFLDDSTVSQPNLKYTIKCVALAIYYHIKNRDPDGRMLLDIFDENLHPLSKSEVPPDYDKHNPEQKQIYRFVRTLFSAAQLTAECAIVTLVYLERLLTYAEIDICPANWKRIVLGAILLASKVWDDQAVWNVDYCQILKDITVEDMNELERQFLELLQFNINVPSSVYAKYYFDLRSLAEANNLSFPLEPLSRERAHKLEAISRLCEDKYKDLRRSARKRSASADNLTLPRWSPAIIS

With `CN(C)C/C=C/C(=O)Nc1cccc(S(=O)(=O)N2CCC(NC(=O)c3n[nH]cc3NC(=O)c3c(Cl)cc(Cl)cc3Cl)CC2)c1`, the IC50 (commonly the point on the concentration scale where inhibition reaches its midpoint) was 10 nM.
